Laboratory results published in ChEMBL document CHEMBL3407403, “Synthetic modification of hydroxychavicol by Mannich reaction and alkyne-azide cycloaddition derivatives depicting cytotoxic potential” (Eur J Med Chem, 2015).
Calls of active or inactive are those of the source. The rule behind the calls is not given here.

How the values were obtained:
[1] = Cell cycle arrest in human HL60 cells assessed as apoptotic cells at 5 uM after 24 hrs by propidium iodide-staining based flow cytometry (reference value: 3%); type: functional; details: HL-60
[2] = Cell cycle arrest in human HL60 cells assessed as accumulation at G1 phase at 5 uM after 24 hrs by propidium iodide-staining based flow cytometry (reference value: 36%); type: functional; details: HL-60
[3] = Cell cycle arrest in human HL60 cells assessed as apoptotic cells at 10 uM after 24 hrs by propidium iodide-staining based flow cytometry (reference value: 3%); type: functional; details: HL-60
[4] = Growth inhibition of human MIAPaCa2 cells after 72 hrs by MTT assay; type: functional, cell-based; details: MIA PaCa-2, 72 h
[5] = Cell cycle arrest in human HL60 cells assessed as accumulation at G1 phase at 10 uM after 24 hrs by propidium iodide-staining based flow cytometry (reference value: 36%); type: functional; details: HL-60
[6] = Cell cycle arrest in human HL60 cells assessed as apoptotic cells at 20 uM after 24 hrs by propidium iodide-staining based flow cytometry (reference value: 3%); type: functional; details: HL-60
HepG2 [7] = test: Growth inhibition of human HepG2 cells at 50 uM after 72 hrs by MTT assay; type: functional; details: HepG2, 72 h, read-out: GI
MCF7 [8] = test: Growth inhibition of human MCF7 cells at 50 uM after 72 hrs by MTT assay; type: functional; details: MCF7, 72 h, read-out: GI
HL-60 [9] = test: Reduction in mitochondrial membrane potential in human HL60 cells at 15 uM after 24 hrs by Rh-123-staining based flow cytometry (reference value: 7%); type: functional; design: scale not given: the % may be the effect or the level left
[10] = Cell cycle arrest in human HL60 cells assessed as accumulation at S phase at 10 uM after 24 hrs by propidium iodide-staining based flow cytometry (reference value: 63%); type: functional; details: HL-60
SK-N-SH [11] = test: Growth inhibition of human SK-N-SH cells at 50 uM after 72 hrs by MTT assay; type: functional; details: read-out: GI
HL-60 [12] = test: Reduction in mitochondrial membrane potential in human HL60 cells at 20 uM after 24 hrs by Rh-123-staining based flow cytometry (reference value: 7%); type: functional; design: scale not given: the % may be the effect or the level left
[13] = Cell cycle arrest in human HL60 cells assessed as accumulation at S phase at 5 uM after 24 hrs by propidium iodide-staining based flow cytometry (reference value: 63%); type: functional; details: HL-60
[14] = Cell cycle arrest in human HL60 cells assessed as accumulation at G1 phase at 20 uM after 24 hrs by propidium iodide-staining based flow cytometry (reference value: 36%); type: functional; details: HL-60
HL-60 [15] = test: Reduction in mitochondrial membrane potential in human HL60 cells at 5 uM after 24 hrs by Rh-123-staining based flow cytometry (reference value: 7%); type: functional; design: scale not given: the % may be the effect or the level left
[16] = Growth inhibition of human MIAPaCa2 cells at 30 uM after 72 hrs by MTT assay; type: functional; details: MIA PaCa-2, 72 h, read-out: GI
[17] = Growth inhibition of human MIAPaCa2 cells at 50 uM after 72 hrs by MTT assay; type: functional; details: MIA PaCa-2, 72 h, read-out: GI
[18] = Cell cycle arrest in human HL60 cells assessed as accumulation at S phase at 20 uM after 24 hrs by propidium iodide-staining based flow cytometry (reference value: […]); type: functional; details: HL-60
HL-60 [19] = test: Induction of apoptosis in human HL60 cells assessed as effect on morphology at 5 to 20 uM after 24 hrs by phase-contrast microscopy; type: functional, cell-based
SK-N-SH [20] = test: Growth inhibition of human SK-N-SH cells at 30 uM after 72 hrs by MTT assay; type: functional; details: read-out: GI
[21] = Growth inhibition of human HL60 cells after 72 hrs by MTT assay; type: functional, cell-based; details: HL-60, 72 h
[22] = Cell cycle arrest in human HL60 cells assessed as accumulation at G2 phase at 20 uM after 24 hrs by propidium iodide-staining based flow cytometry (reference value: […]); type: functional; details: HL-60
HL-60 [23] = test: Reduction in mitochondrial membrane potential in human HL60 cells at 10 uM after 24 hrs by Rh-123-staining based flow cytometry (reference value: 7%); type: functional; design: scale not given: the % may be the effect or the level left
HepG2 [24] = test: Growth inhibition of human HepG2 cells after 72 hrs by MTT assay; type: functional, cell-based; details: HepG2, 72 h
[25] = Cell cycle arrest in human HL60 cells assessed as accumulation at S phase at 15 uM after 24 hrs by propidium iodide-staining based flow cytometry (reference value: 63%); type: functional; details: HL-60
[26] = Cell cycle arrest in human HL60 cells assessed as apoptotic cells at 15 uM after 24 hrs by propidium iodide-staining based flow cytometry (reference value: 3%); type: functional; details: HL-60
MCF7 [27] = test: Growth inhibition of human MCF7 cells after 72 hrs by MTT assay; type: functional, cell-based; details: MCF7, 72 h
SK-N-SH [28] = test: Growth inhibition of human SK-N-SH cells after 72 hrs by MTT assay; type: functional, cell-based
[29] = Cell cycle arrest in human HL60 cells assessed as accumulation at G1 phase at 15 uM after 24 hrs by propidium iodide-staining based flow cytometry (reference value: 36%); type: functional; details: HL-60
HL-60 [30] = test: Induction of apoptosis in human HL60 cells assessed as apoptotic bodies formation after 24 hrs by Hoechst 33342-staining based fluorescence microscopy; type: functional, cell-based
[31] = Growth inhibition of human HL60 cells after 24 hrs by MTT assay; type: functional, cell-based; details: HL-60, 24 h
[32] = Growth inhibition of human HL60 cells at 50 uM after 72 hrs by MTT assay; type: functional; details: HL-60, 72 h, read-out: GI
[33] = Cell cycle arrest in human HL60 cells assessed as accumulation at G2 phase at 5 uM after 24 hrs by propidium iodide-staining based flow cytometry (reference value: 1%); type: functional; details: HL-60
HepG2 [34] = test: Growth inhibition of human HepG2 cells at 30 uM after 72 hrs by MTT assay; type: functional; details: HepG2, 72 h, read-out: GI
[35] = Cell cycle arrest in human HL60 cells assessed as accumulation at G2 phase at 15 uM after 24 hrs by propidium iodide-staining based flow cytometry (reference value: […]); type: functional; details: HL-60
MCF7 [36] = test: Growth inhibition of human MCF7 cells at 30 uM after 72 hrs by MTT assay; type: functional; details: MCF7, 72 h, read-out: GI
[37] = Cell cycle arrest in human HL60 cells assessed as accumulation at G2 phase at 10 uM after 24 hrs by propidium iodide-staining based flow cytometry (reference value: 1%); type: functional; details: HL-60
[38] = Growth inhibition of human HL60 cells at 30 uM after 72 hrs by MTT assay; type: functional; details: HL-60, 72 h, read-out: GI
HL-60 [39] = test: Induction of apoptosis in human HL60 cells assessed as apoptotic bodies formation at 5 to 20 uM after 24 hrs by Hoechst 33342-staining based fluorescence microscopy; type: functional, cell-based

Row | Compound | Activity [1] | Activity [2] | Activity [3] | IC50 [4] | Activity [5] | Activity [6] | inhibition of growth at 50 µM (HepG2 [7]) | inhibition of growth at 50 µM (MCF7 [8]) | Activity (HL-60 [9]) | Activity [10] | inhibition of growth at 50 µM (SK-N-SH [11]) | Activity (HL-60 [12]) | Activity [13] | Activity [14] | Activity (HL-60 [15]) | inhibition of growth at 30 µM [16] | inhibition of growth at 50 µM [17] | Activity [18] | Activity (HL-60 [19]) | inhibition of growth at 30 µM (SK-N-SH [20]) | further results
1 | C=CCc1cc(O)c(O)c(CN2CCNCC2)c1 | 8% | 41% | 11% | 4 µM | 59% | 88% | 73% | 74.2% | 45% | 37% | 69.9% | 46% | 57% | 52% | 38% | 82.8% | 85.6% | 44% | Active | 65.3% | IC50 [21]: 2000 nM; Activity [22]: 4%; Activity (HL-60 [23]): 44%; IC50 (HepG2 [24]): 20 µM; Activity [25]: 39%; Activity [26]: 27%; IC50 (MCF7 [27]): 12 µM; IC50 (SK-N-SH [28]): 14 µM; Activity [29]: 50%; Activity (HL-60 [30]): Dose-dependent effect; IC50 [31]: 12 µM; inhibition of growth at 50 µM [32]: 94.4%; Activity [33]: 2%; inhibition of growth at 30 µM (HepG2 [34]): 64.2%; Activity [35]: 11%; inhibition of growth at 30 µM (MCF7 [36]): 69.2%; Activity [37]: 4%; inhibition of growth at 30 µM [38]: 92.5%
2 | C=CCc1cc(O)c(O)c(CN2CCN(c3ccccc3O)CC2)c1 | 7% | 47% | 12% | 3 µM | 41% | 89% | 82.8% | 79.7% | 59% | 52% | 79.5% | 71% | 52% | 51% | 38% | 88.7% | 89.9% | 44% | Active | 69.2% | IC50 [21]: 1000 nM; Activity [22]: 5%; Activity (HL-60 [23]): 44%; IC50 (HepG2 [24]): 16 µM; Activity [25]: 78%; Activity [26]: 52%; IC50 (MCF7 [27]): 9 µM; IC50 (SK-N-SH [28]): 11 µM; Activity [29]: 21%; Activity (HL-60 [30]): Dose-dependent effect; IC50 [31]: 10 µM; inhibition of growth at 50 µM [32]: 93.5%; Activity [33]: 1%; inhibition of growth at 30 µM (HepG2 [34]): 72.8%; Activity [35]: 1%; inhibition of growth at 30 µM (MCF7 [36]): 77.7%; Activity [37]: 7%; inhibition of growth at 30 µM [38]: 90.3%
3 | C=CCc1ccc(O)c(O)c1 [HYDROXYCHAVICOL] | 5% | 35% | 9% | > 30 µM | 37% | 10% | 29.3% | 44.1% | 26% | 54% | 71.7% | 42% | 57% | 27% | 17% | 41.7% | 42.8% | 67% | Active | 34.2% | IC50 [21]: 3000 nM; Activity [22]: 6%; Activity (HL-60 [39]): Active; Activity (HL-60 [23]): 22%; IC50 (HepG2 [24]): > 30 µM; Activity [25]: 61%; Activity [26]: 10%; IC50 (MCF7 [27]): > 30 µM; IC50 (SK-N-SH [28]): > 30 µM; Activity [29]: 17%; IC50 [31]: 50 µM; inhibition of growth at 50 µM [32]: 92.4%; Activity [33]: 8%; inhibition of growth at 30 µM (HepG2 [34]): 27.2%; Activity [35]: 22%; inhibition of growth at 30 µM (MCF7 [36]): 36.9%; Activity [37]: 9%; inhibition of growth at 30 µM [38]: 88.8%
